From US11040951B2, “Methods and compositions relating to genotoxin colibactin” (PRESIDENT AND FELLOWS OF HARVARD COLLEGE, priority 2018, dated 2021)
Entries after “also recorded” stand apart in the source; their conditions may differ. Like-named read-outs stand apart in the source and are kept apart here. Non-standard residues stand in square brackets, D forms with d. Residues, ends and D or L forms follow the SMILES beside them. *: point of attachment. Myristoyl = CCCCCCCCCCCCCC(=O)*

Columns and labels:
[1] = tested on: ClbPpep; assay: In vitro cleavage of synthetic substrates by isolated peptidase domain, LC-MS detection; format: biochemical, E. coli
Procedure: (§1) The top graph of FIG. 2A depicts LC-MS detection of the prodrug scaffold ([M+H]^+: 343.2597 m/z) released by the hydrolysis of (1) by ClbP in vitro. Reactions were carried out in 50 mM Tris pH 8.0, 200 mM NaCl, 0.1 μM enzyme. 0.02% w/v DDM was added for all reactions involving full-length ClbP (Error bars are SD, n=3). The bottom graph of FIG. 2B depicts kinetic analysis of ClbP acting on synthetic precolibactin-mimic substrate (1). Note that this substrate is insoluble above 200 μM under assay conditions. Rates were calculated by quenching reactions in 1-minute intervals in methanol and quantifying the amount of substrate cleaved by derivatization of the L-alanine product with o-phthaldialdehye (OPA) and fluorescence detection (see Examples) (Error bars are SD, n=3). Substrate is insoluble above 200 μM under assay conditions. All kinetics experiments are averages of 3 independent replicates, reactions were carried out in 50 mM Sodium Phosphate pH 8.0, 200 mM NaCl, 0.02% w/v DDM, 0.1 μM enzyme. The bottom graph of FIG. 2B depicts the approach and substrates sampled in this SAR study. All kinetics experiments are averages of 3 independent replicates, reactions were carried out in 50 mM Sodium Phosphate pH 8.0, 200 mM NaCl, 0.02% w/v DDM, 0.1 μM ClbP-FL (full length) (also referred to herein as ClbPFL). All errors are ±SD.
(§2) Optical densities of E. coli cultures were determined with a DU 730 Life Sciences UV/Vis spectrophotometer (Beckman Coulter, Indianapolis, Ind.) by measuring absorbance at 600 nm. Ultracentrifugation was performed on a Beckman-Coulter Optima XE-90 Ultracentrifuge fitted with a type 45 Ti rotor in 70 mL polycarbonate tubes. Solvents and formic acid used for LC-MS were B & J Brand High Purity Solvents (Honeywell Research Chemicals). High-resolution LC-MS analyses of enzyme assays and synthetic compounds were performed on an Agilent 6530 Q-TOF Mass Spectrometer fitted with a dual-spray electrospray ionization (ESI) source. […] All experiments were performed in positive ion mode, and the masses detected corresponded to [M+H]+ ions unless otherwise noted. […]

[2] = tested on: ClbPFL-S95A; assay: In vitro cleavage of synthetic substrates by inactive mutant, LC-MS detection; format: biochemical, E. coli
Procedure: as §1, §2

[3] = tested on: ClbPFL (full-length ClbP); assay: In vitro cleavage of synthetic substrates by ClbPFL, LC-MS detection; format: biochemical, E. coli; details: for cleavage by ClbPFL in vitro: LC-MS detection of cleavage product
Procedure: as §1
Optical densities of E. coli cultures were determined with a DU 730 Life Sciences UV/Vis spectrophotometer (Beckman Coulter, Indianapolis, Ind.) by measuring absorbance at 600 nm. Ultracentrifugation was performed on a Beckman-Coulter Optima XE-90 Ultracentrifuge fitted with a type 45 Ti rotor in 70 mL polycarbonate tubes. Solvents and formic acid used for LC-MS were B & J Brand High Purity Solvents (Honeywell Research Chemicals). High-resolution LC-MS analyses of enzyme assays and synthetic compounds were performed on an Agilent 6530 Q-TOF Mass Spectrometer fitted with a dual-spray electrospray ionization (ESI) source. The capillary voltage was set to 3.5 kV, the fragmentor voltage to 175 V, the skimmer voltage to 65 V, and the Oct 1 RF to 750 V. The drying gas temperature was maintained at 275° C. with a flow rate of 8 L/min and a nebulizer pressure of 35 psi. A standard calibrant mix was introduced continuously during all experiments via the dual-spray ESI source. For analytical liquid chromatography, unless otherwise noted, experiments were performed using an Agilent Technologies 1200 series LC on a Hypersil GOLDaq™ C18 reverse phase column (50×3 mm, Thermo Scientific) with the following elution conditions: a gradient from 35% solvent A:65% solvent B to 100% solvent A over 5 minutes, holding at 100% A for 2 minutes, followed by a gradient back to 35% solvent A over 1 minute and holding at 35% solvent A for 3.5 minutes (solvent A: acetonitrile+0.1% formic acid; solvent B: water+0.1% formic acid; flow rate=0.4 mL/minute; injection volume=10 μL). All experiments were performed in positive ion mode, and the masses detected corresponded to [M+H]+ ions unless otherwise noted. Masses were found within 5 ppm of the expected [M+H]+ masses.
For all in vitro assays involving ClbPFL and ClbFL-S95A “Tris assay buffer” refers to a buffer composed of 50 mM Tris, 200 mM NaCl, 0.02% w/v DDM, pH 8.0. Likewise, “phosphate assay buffer” refers to 50 mM sodium phosphate, 200 mM NaCl, 0.02% w/v DDM, pH 8.0.

[4] = tested on: ClbPFL; assay: In vitro kinetics assay with ClbPFL (o-phthaldialdehyde derivatization); format: biochemical, E. coli
Procedure: In vitro kinetics assays with ClbPFL (comparison of substrates 2, 3, and 4 using o-phthaldialdehyde derivatization): Assays were run in triplicate in 1.5 mL deep-well plates. ClbPFL-CHis10 was defrosted from −80° C. stocks on ice, then buffer exchanged into phosphate assay buffer using Zeba Spin 40K MWCO desalting columns (ThermoFisher Scientific). The enzyme was then diluted to 0.6 μM in phosphate assay buffer and 50 μL of this stock was deposited in the appropriate wells. The substrate of interest was prepared in a 2-fold dilution series in phosphate assay buffer. Reactions were initiated by the addition of 250 μL of substrate stock to each assay well to a final concentration of 0.1 μM ClbP, 12.5-200 μM substrate, 3% DMSO and incubated at 25° C. Reaction mixtures were pipetted briefly to mix. […] 50 μL of each supernatant from the quenched reactions and standard curves were then transferred to the appropriate wells, pipetted once to mix, and then fluorescence was immediately measured on a plate reader (Bio-Tek Synergy HTX multimode plate reader, measurement settings −360/40 nm excitation filter, 440/20 nm emission filter, detector gain: 35). Fluorescence was measured every 30 seconds for 10 minutes and the maximum value achieved for each well was used for calculations. […]

[5] = tested on: CCCC(=O)N[C@H](CC(N)=O)C(=O)N[C@@H](C)C(=O)OC; assay: In vitro kinetics of ClbPFL-mediated cleavage of substrates, o-phthaldialdehyde (OPA) derivatization of L-alanine product with fluorescence detection (FIGS. 2B, 10, 11); format: biochemical, E. coli; details: pH 8.0
Procedure: as §1
(§3) FIGS. 10A-10C depict the kinetics of ClbPFL-mediated cleavage of substrates (FIG. 10A) 2, (FIG. 10B) 3, and (FIG. 10C) 4. Each data point is an average of 3 biological replicates with error bars representing 1 SD. Solid lines are non-linear regression fits of data points to the Michaelis-Menten model.
(§4) FIG. 11 depicts the kinetic parameters for substrates 2, 3, and 4. […]
(§5) To determine the key features for substrate recognition by full-length ClbP, we undertook a structure-activity-relationship (SAR) focusing on three key regions of the substrate. […] Using a higher-throughput fluorescence derivatization assay, we determined kinetic parameters for several of these substrates (FIG. 2B). […]

[6] = tested on: COC(=O)[C@H](C)NC(=O)[C@@H](CC(N)=O)NC(=O)CCCc1ccccc1; assay: as above; format: biochemical, E. coli; details: pH 8.0
Procedure: as §1, §3, §4, §5

[7] = tested on: CCCCCCCCCCCCCC(=O)N[C@H](CC(N)=O)C(=O)N[C@@H](C)C(=O)OC; assay: as above; format: biochemical, E. coli; details: pH 8.0
Procedure: as §1, §3, §4, §5

[8] = tested on: CCCCCCCCCCCCCC(=O)N[C@H](CC(N)=O)C(=O)N[C@@H](C)C(=O)OC; assay: Kinetics of ClbPFL-mediated cleavage of substrates 1 and 2 (FIG. 8); format: biochemical, E. coli; details: pH 8.0
Source text: (§6) FIG. 8 depicts the kinetics of ClbPFL-mediated cleavage of substrates 1 and 2. Each data point is an average of 3 biological replicates with error bars representing 1 SD. Solid lines are non-linear regression fits of data points to the Michaelis-Menten equation.
(§7) As used herein “ClbP” or “colibactin P” refers to a membrane bound periplasmic peptidase that cleaves an N-acyl-D-asparagine motif (the ‘prodrug scaffold’) from the N-terminus of precolibactin to liberate the active colibactin (FIG. 1). The sequences of ClbP are known in the art, e.g., the polypeptide sequence is available in the Uniprot database as accession number Q0P7K6 (SEQ ID NO: 1).
(§8) We obtained purified enzyme by separating the cell components using ultracentrifugation, solubilizing the membranes in an n-dodecyl-β-D-maltoside (DDM)-containing buffer, and per¬forming immobilized metal affinity chromatography. Because the structure of precolibactin has not yet been fully elucidated, we tested purified ClbPFL against a variety of synthetic precolibactin analogues. […] We chose substrate 2 for a more detailed structure—activity relationship (SAR) study. […]

[9] = tested on: CCCCCCCCCCCCCC(=O)N[C@H](CC(N)=O)C(=O)N[C@@H](C)CCC(=O)CC(=O)NC1(C(=O)O)CC1; assay: as above; format: biochemical, E. coli; details: pH 8.0
Source text: as §6, §7, §8

[10] = Solubility and membrane permeability as observed in the assays; format: physicochemical; details: under assay conditions

Compound	cleavage by ClbPpep in vitro [1]	cleavage by ClbPFL-S95A in vitro [2]	cleavage by ClbPFL in vitro [3]	kinetic parameters / hydrolysis efficiency compared with the reference substrate [4]	also measured
CCCCCCCCCCCCCC(=O)N[C@H](CC(N)=O)C(=O)N[C@@H](C)CCC(=O)CC(=O)NC1(C(=O)O)CC1 [Compound 1]	no activity	no activity	rapidly in vitro	comparable	–
ClbPFL (full-length ClbP, ClbPFL-CHis10) (Escherichia coli)	–	–	–	–	Km [5]: 680 ± 470 µM; Km [6]: 246 ± 70 µM; Km [7]: 130 ± 26 µM; Km [8]: 75 ± 23 µM; Km [9]: 16 ± 2 µM
CCCCCCCCCCCCCC(=O)N[C@H](CC(=O)O)C(=O)N[C@@H](C)C(=O)OC [(6)] (Myristoyl-[dD]-Ala-OMe)	–	–	cleaved in low amounts	–	amount cleaved by ClbPFL, fold less than (1) ([3]; LC-MS, relative to (1)): ~100 fold
CCCCCCCCCCCCCC(=O)N[C@@H](CC(N)=O)C(=O)N[C@@H](C)C(=O)OC [(7)] (Myristoyl-Asn-Ala-OMe)	–	–	no cleavage products were detected	–	–
CCCCCCCCCCCCCC(=O)N[C@H](CC(N)=O)C(=O)N[C@@H](C)CCC(=O)CC(=O)NC1(C(=O)O)CC1 [(1)]	no cleavage activity	no cleavage activity	rapidly in vitro	comparable	solubility limit [10]: ≤ 200 µM; cleavage by ClbPpep in vitro ([1]; listed as 2): no activity; also recorded: cannot process; cleavage by ClbPFL-S95A in vitro ([2]; listed as 2): no activity
CCCCCCCCCCCCCC(=O)N[C@H](CCC(N)=O)C(=O)N[C@@H](C)C(=O)OC [(8)] (Myristoyl-[dQ]-Ala-OMe)	–	–	no cleavage products were detected	–	–
